Measured values taken from patent US10131652B2, “Pyrimidinyloxy benzene derivatives as herbicides” (E. I. DU PONT DE NEMOURS AND COMPANY, priority 2014, dated 2018).
Read-outs that look alike come from different tables or passages of the source.

Assays:
Test in all cases: Test F pre-/postemergence plant response
Type in all cases: in vivo
[1] = test system: palmer pigweed (Amaranthus palmeri); conditions: Amaranthus palmeri, scale 0 to 100, read-out: Plant response rating, Pigweed, Palmer
How it was run: (§1)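 Two application timings were run side by side: soil surface treatment of freshly planted seed in silt loam, and foliar treatment of seedlings 2 to 18 cm high. Plants stayed in the greenhouse 14 to 21 days before visual 0–100 injury scoring against controls.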

[2] = test system: sandbur (southern sandbur, Cenchrus echinatus); conditions: Cenchrus echinatus, scale 0 to 100, read-out: Plant response rating, Sandbur
How it was run: as §1

[3] = test system: Brazilian crabgrass (Digitaria horizontalis); conditions: Digitaria horizontalis, scale 0 to 100, read-out: Plant response rating, Crabgrass, Brazil
How it was run: as §1

[4] = test system: arrowleaf sida (Sida rhombifolia); conditions: Sida rhombifolia, scale 0 to 100, read-out: Plant response rating, Arrowleaf Sida
How it was run: as §1

[5] = test system: goosegrass (Eleusine indica); conditions: Eleusine indica, pre-emergence, scale 0 to 100, read-out: Plant response rating, Goosegrass
How it was run: as §1

[6] = test system: velvetleaf (Abutilon theophrasti); conditions: Abutilon theophrasti, pre-emergence, scale 0 to 100, read-out: Plant response rating, Velvetleaf
How it was run: as §1

[7] = test system: fall panicum (Panicum dichotomiflorum); conditions: Panicum dichotomiflorum, scale 0 to 100, read-out: Plant response rating, Panicum, Fall
How it was run: as §1

corn (Zea mays) = conditions: Zea mays, scale 0 to 100
How it was run: as §1

[8] = test system: nightshade (eastern black nightshade, Solanum ptycanthum); conditions: Solanum, pre-emergence, scale 0 to 100, read-out: Plant response rating, Nightshade
How it was run: as §1

[9] = test system: hairy beggarticks (Bidens pilosa); conditions: Bidens pilosa, scale 0 to 100, read-out: Plant response rating, Beggarticks
How it was run: as §1

[10] = post-emergence, 8 g ai/ha Postemergence
[11] = post-emergence, 16 g ai/ha Postemergence
[12] = post-emergence, 31 g ai/ha Postemergence
[13] = post-emergence, 62 g ai/ha Postemergence
[14] = post-emergence, 125 g ai/ha Postemergence
[15] = pre-emergence, 8 g ai/ha Preemergence
[16] = pre-emergence, 16 g ai/ha Preemergence
[17] = pre-emergence, 31 g ai/ha Preemergence
[18] = pre-emergence, 125 g ai/ha Preemergence
[19] = pre-emergence, 62 g ai/ha Preemergence

FC(F)c1cc(-c2ccccc2Oc2ncc(Cl)cn2)on1 [Compound 53, 5-chloro-2-[2-[3-(difluoromethyl)-5-isoxazolyl]phenoxy]pyrimidine]
pest or weed control at 8 g/ha [1, 10]: 70% | pest or weed control at 16 g/ha [1, 11]: 65% | pest or weed control at 31 g/ha [1, 12]: 90% | pest or weed control at 62 g/ha [1, 13]: 100% | pest or weed control at 125 g/ha [1, 14]: 100% | pest or weed control at 8 g/ha [1, 15]: 0% | pest or weed control at 16 g/ha [1, 16]: 0% | pest or weed control at 31 g/ha [1, 17]: 90% | pest or weed control at 125 g/ha [1, 18]: 100% | pest or weed control at 62 g/ha ([1]; pre-emergence, Preemergence): 100% | pest or weed control at 8 g/ha [2, 10]: 0% | pest or weed control at 16 g/ha [2, 11]: 0% | pest or weed control at 31 g/ha [2, 12]: 0% | pest or weed control at 62 g/ha [2, 13]: 5% | pest or weed control at 125 g/ha [2, 14]: 10% | pest or weed control at 8 g/ha [2, 15]: 0% | pest or weed control at 16 g/ha [2, 16]: 0% | pest or weed control at 31 g/ha [2, 17]: 0% | pest or weed control at 125 g/ha [2, 18]: 0% | pest or weed control at 62 g/ha ([2]; pre-emergence, Preemergence): 0% | pest or weed control at 8 g/ha [3, 10]: 0% | pest or weed control at 16 g/ha [3, 11]: 10% | pest or weed control at 31 g/ha [3, 12]: 15% | pest or weed control at 62 g/ha [3, 13]: 20% | pest or weed control at 125 g/ha [3, 14]: 20% | pest or weed control at 8 g/ha [3, 15]: 0% | pest or weed control at 16 g/ha [3, 16]: 0% | pest or weed control at 31 g/ha [3, 17]: 5% | pest or weed control at 62 g/ha [3, 19]: 85% | pest or weed control at 125 g/ha [3, 18]: 90% | pest or weed control at 8 g/ha [4, 10]: 70% | pest or weed control at 16 g/ha [4, 11]: 90% | pest or weed control at 31 g/ha [4, 12]: 98% | pest or weed control at 62 g/ha [4, 13]: 100% | pest or weed control at 125 g/ha [4, 14]: 98% | pest or weed control at 8 g/ha [4, 15]: 0% | pest or weed control at 16 g/ha [4, 16]: 20% | pest or weed control at 31 g/ha [4, 17]: 65% | pest or weed control at 62 g/ha [4, 19]: 100% | pest or weed control at 125 g/ha [4, 18]: 100% | pest or weed control at 8 g/ha ([5]; 8 g ai/ha Preemergence): 0% | pest or weed control at 16 g/ha ([5]; 16 g ai/ha Preemergence): 0% | pest or weed control at 31 g/ha ([5]; 31 g ai/ha Preemergence): 0% | pest or weed control at 125 g/ha ([5]; 125 g ai/ha Preemergence): 60% | pest or weed control at 62 g/ha ([5]; Preemergence): 10% | pest or weed control at 8 g/ha ([6]; 8 g ai/ha Preemergence): 0% | pest or weed control at 16 g/ha ([6]; 16 g ai/ha Preemergence): 65% | pest or weed control at 31 g/ha ([6]; 31 g ai/ha Preemergence): 90% | pest or weed control at 125 g/ha ([6]; 125 g ai/ha Preemergence): 100% | pest or weed control at 62 g/ha ([6]; Preemergence): 100% | pest or weed control at 8 g/ha [7, 10]: 0% | pest or weed control at 16 g/ha [7, 11]: 5% | pest or weed control at 31 g/ha [7, 12]: 20% | pest or weed control at 62 g/ha [7, 13]: 15% | pest or weed control at 125 g/ha [7, 14]: 60% | pest or weed control at 8 g/ha [7, 15]: 0% | pest or weed control at 16 g/ha [7, 16]: 0% | pest or weed control at 31 g/ha [7, 17]: 0% | pest or weed control at 125 g/ha [7, 18]: 98% | pest or weed control at 62 g/ha ([7]; pre-emergence, Preemergence): 95% | Corn plant response rating (crop injury, 0 = no effect, 100 = complete kill) at 8 g/ha (corn (Zea mays); [10]): 0% | Corn plant response rating (crop injury, 0 = no effect, 100 = complete kill) at 16 g/ha (corn (Zea mays); [11]): 0% | Corn plant response rating (crop injury, 0 = no effect, 100 = complete kill) at 31 g/ha (corn (Zea mays); [12]): 0% | Corn plant response rating (crop injury, 0 = no effect, 100 = complete kill) at 62 g/ha (corn (Zea mays); [13]): 0% | Corn plant response rating (crop injury, 0 = no effect, 100 = complete kill) at 125 g/ha (corn (Zea mays); [14]): 10% | Corn plant response rating (crop injury, 0 = no effect, 100 = complete kill) at 8 g/ha (corn (Zea mays); [15]): 0% | Corn plant response rating (crop injury, 0 = no effect, 100 = complete kill) at 16 g/ha (corn (Zea mays); [16]): 0% | Corn plant response rating (crop injury, 0 = no effect, 100 = complete kill) at 31 g/ha (corn (Zea mays); [17]): 0% | Corn plant response rating (crop injury, 0 = no effect, 100 = complete kill) at 62 g/ha (corn (Zea mays); [19]): 0% | Corn plant response rating (crop injury, 0 = no effect, 100 = complete kill) at 125 g/ha (corn (Zea mays); [18]): 15% | pest or weed control at 16 g/ha ([8]; 16 g ai/ha Preemergence): 35% | pest or weed control at 31 g/ha ([8]; 31 g ai/ha Preemergence): 90% | pest or weed control at 125 g/ha ([8]; 125 g ai/ha Preemergence): 98% | pest or weed control at 62 g/ha ([8]; Preemergence): 98% | pest or weed control at 8 g/ha [9, 10]: 15% | pest or weed control at 16 g/ha [9, 11]: 30% | pest or weed control at 31 g/ha [9, 12]: 40% | pest or weed control at 62 g/ha [9, 13]: 50% | pest or weed control at 125 g/ha [9, 14]: 60% | pest or weed control at 8 g/ha [9, 15]: 0% | pest or weed control at 16 g/ha [9, 16]: 0% | pest or weed control at 31 g/ha [9, 17]: 0% | pest or weed control at 62 g/ha [9, 19]: 30% | pest or weed control at 125 g/ha [9, 18]: 20%
